tested on: IL-12 production in human PBMC or THP-1 cells; test: In vitro inhibition of IL-12 production in stimulated human PBMC or THP-1 cells (ELISA); assay type: cell-based; settings: representative in vitro IC50 data
Description: The biological activities of a heterocyclic compound can be evaluated by a number of cell-based assays. One of such assays can be conducted using cells from human peripheral blood mononuclear cells (PBMC) or human monocytic cell line (THP-1). The cells are stimulated with a combination of human interferon-γ (IFNγ) and lipopolysaccharide or a combination of IFNγ and Staphylococcus aureus Cowan I in the presence of a test compound. The level of inhibition of IL-12 production can be measured by determining the amount of p70 by using a sandwich ELISA assay with anti-human IL-12 antibodies. IC50 of the test compound can then be determined. Specifically, PBMC or THP-1 cells are incubated with the test compound. Cell viability was assessed using the bioreduction of MTS [3-(4,5-dimethylthiazol-2-yl)-5-(3-carboxymethoxyphenyl)-2-(4-sulfophenyl)-2H-tetrazolium] (Promega, Madison, Wis.).
Reagents. Staphylococcus aureus Cowan I (SAC) was obtained from Calbiochem (La Jolla, Calif.), and lipopolysaccharide (LPS, Serratia marscencens) was obtained from Sigma (St. Louis, Mo.). Human and mouse recombinant IFNγ were purchased from Boehringer Mannheim (Mannheim, Germany) and Pharmingen (San Diego, Calif.), respectively.
Human In Vitro Assay. Human PBMC were isolated by centrifugation using Ficoll-Paque (Pharmacia Biotech, Uppsala, Sweden) and prepared in RPMI medium supplemented with 10% fetal calf serum (FCS), 100 U/mL penicillin, and 100 μg/mL streptomycin. PBMC were plated in wells of a 96-well plate at a concentration of 5×10^5 cells/well, and primed by adding IFNγ (30 U/mL) for 22 h and stimulated by adding LPS (1 μg/mL), or by adding IFNγ (100 U/mL) and then stimulated by adding SAC (0.01%). A test pyrimidine compound was dissolved in DMSO, and added to wells of the 96-well plate. The final DMSO concentration was adjusted to 0.25% in all cultures, including the compound-free control. Human THP-1 cells were plated in wells, primed by adding IFNγ (100 U/mL) for 22 h and stimulated by adding SAC (0.025%) in the presence of different concentrations of the pyrimidine compound. Cell-free supernatants were taken 18 h later for measurement of cytokines. Cell viability was assessed using the bioreduction of MTS. Cell survival was estimated by determining the ratio of the absorbance in compound-treated groups versus compound-free control.
The supernatant was assayed for the amount of IL-12p40, IL-12p70, or IL-10 by using a sandwich ELISA with anti-human antibodies, i.e., a Human IL-12 p40 ELISA kit from R&D Systems (Berkeley, Calif.), and a Human IL-12 p70 or IL-10 ELISA kit from Endogen (Cambridge, Mass.). Assays were based on the manufacturer's instructions.
The biological activities of pyrimidine compounds were tested on human PBMC or THP-1 cells. Unexpectedly, some of the test compounds have IC50 values as low as <1 nM.

Question: Which IC50 does the source give for COc1cccc(NC(=O)OCCCc2nc(N/N=C/c3cccc(C)c3)cc(N3CCOCC3)n2)c1 [Compound 1, (3-Methoxy-phenyl)-carbamic acid 3-{4-[N′-(3-methyl-benzylidene)-hydrazino]-6-morpholin-4-yl-pyrimidin-2-yl}-propyl ester] here?
Answer: The IC50 was 25 to 50 nM.

Question: Cc1cccc(/C=N/Nc2cc(N3CCOCC3)nc(CCCOC(=O)Nc3cccc(C(F)(F)F)c3)n2)c1 [Compound 2, (3-Trifluoromethyl-phenyl)-carbamic acid 3-{4-[N′-(3-methyl-benzylidene)-hydrazino]-6-morpholin-4-yl-pyrimidin-2-yl}-propyl ester] was tested. Which IC50 did it give?
Answer: Its IC50 is less than 25 nM.

Question: How did the IC50 turn out when Cc1ccc(NC(=O)OCCCc2nc(N/N=C/c3cccc(C)c3)cc(N3CCOCC3)n2)cc1 [Compound 3, p-Tolyl-carbamic acid 3-{4-[N′-(3-methyl-benzylidene)-hydrazino]-6-morpholin-4-yl-pyrimidin-2-yl}-propyl ester] was run?
Answer: The IC50 was less than 25 nM.

Question: Cc1cccc(/C=N/N(C)c2cc(N3CCOCC3)nc(CCCOC(=O)Nc3cccc(C(F)(F)F)c3)n2)c1 [Compound 4, (3-Trifluoromethyl-phenyl)-carbamic acid 3-{4-[N-methyl-N′-(3-methyl-benzylidene)-hydrazino]-6-morpholin-4-yl-pyrimidin-2-yl}-propyl ester] was tested. Which IC50 did it give?
Answer: The IC50 was greater than 50 nM.

Question: With Cc1cccc(/C=N/Nc2cc(N3CCOCC3)nc(CCCOC(=O)NC3CCCCC3)n2)c1 [Compound 5, Cyclohexyl-carbamic acid 3-{4-[N′-(3-methyl-benzylidene)-hydrazino]-6-morpholin-4-yl-pyrimidin-2-yl}-propyl ester] as the compound, how does the IC50 read?
Answer: The IC50 was less than 25 nM.

Question: Cc1cccc(/C=N/Nc2cc(N3CCOCC3)nc(CCCOC(=O)Nc3ccccc3F)n2)c1 [Compound 6, (2-Fluoro-phenyl)-carbamic acid 3-{4-[N′-(3-methyl-benzylidene)-hydrazino]-6-morpholin-4-yl-pyrimidin-2-yl}-propyl ester] was tested. Which IC50 did it give?
Answer: Its IC50 is less than 25 nM.

Question: With Cc1cccc(/C=N/Nc2cc(N3CCOCC3)nc(CCCOC(=O)Nc3ccc([N+](=O)[O-])cc3)n2)c1 [Compound 7, (4-Nitro-phenyl)-carbamic acid 3-{4-[N′-(3-methyl-benzylidene)-hydrazino]-6-morpholin-4-yl-pyrimidin-2-yl}-propyl ester] as the compound, how does the IC50 read?
Answer: Its IC50 is less than 25 nM.

Question: CCNC(=O)OCCCc1nc(N/N=C/c2cccc(C)c2)cc(N2CCOCC2)n1 [Compound 8, Ethyl-carbamic acid 3-{4-[N′-(3-methyl-benzylidene)-hydrazino]-6-morpholin-4-yl-pyrimidin-2-yl}-propyl ester] was tested. Which IC50 did it give?
Answer: Its IC50 is less than 25 nM.

Question: Cc1cccc(/C=N/Nc2cc(N3CCOCC3)nc(CCCOC(=S)Nc3cccnc3)n2)c1 [Compound 9, Pyridin-3-yl-thiocarbamic acid O-(3-{4-[N′-(3-methyl-benzylidene)-hydrazino]-6-morpholin-4-yl-pyrimidin-2-yl}-propyl) ester] was tested. Which IC50 did it give?
Answer: Its IC50 is less than 25 nM.

Question: For Cc1cccc(/C=N/Nc2cc(N3CCOCC3)nc(CCCOC(=O)Nc3cccc4ccccc34)n2)c1 [Compound 10, Naphthalen-1-yl-carbamic acid 3-{4-[N′-(3-methyl-benzylidene)-hydrazino]-6-morpholin-4-yl-pyrimidin-2-yl}-propyl ester], which IC50 is on record?
Answer: Its IC50 is greater than 50 nM.

Question: Which IC50 does the source give for Cc1cccc(/C=N/Nc2cc(N3CCOCC3)nc(CCCOC(=O)Nc3ccc(Oc4ccccc4)cc3)n2)c1 [Compound 11, (4-Phenoxy-phenyl)-carbamic acid 3-{4-[N′-(3-methyl-benzylidene)-hydrazino]-6-morpholin-4-yl-pyrimidin-2-yl}-propyl ester] here?
Answer: The IC50 was 25 to 50 nM.

Question: For Cc1ccc(NC(=O)OCCc2nc(N/N=C/c3cccc(C)c3)cc(N3CCOCC3)n2)cc1 [Compound 13, p-Tolyl-carbamic acid 2-{4-[N′-(3-methyl-benzylidene)-hydrazino]-6-morpholin-4-yl-pyrimidin-2-yl}-ethyl ester], which IC50 is on record?
Answer: Its IC50 is less than 25 nM.

Question: Which IC50 does the source give for Cc1ccc(NC(=O)OCCCc2nc(N3CCOCC3)cc(N(C)/N=C/c3cccc(C)c3)n2)cc1 [Compound 14, p-Tolyl-carbamic acid 3-{4-[N-methyl-N′-(3-methyl-benzylidene)-hydrazino]-6-morpholin-4-yl-pyrimidin-2-yl}-propyl ester] here?
Answer: The IC50 was less than 25 nM.

Question: For Cc1cccc(/C=N/Nc2cc(N3CCOCC3)nc(CCOC(=O)Nc3ccc([N+](=O)[O-])cc3)n2)c1 [Compound 15, (4-Nitro-phenyl)-carbamic acid 2-{4-[N′-(3-methyl-benzylidene)-hydrazino]-6-morpholin-4-yl-pyrimidin-2-yl}-ethyl ester], which IC50 is on record?
Answer: The IC50 was less than 25 nM.

Question: With Cc1ccc(NC(=O)OC(C)(C)Cc2nc(N/N=C/c3cccc(C)c3)cc(N3CCOCC3)n2)cc1 [Compound 16, p-Tolyl-carbamic acid 1,1-dimethyl-2-{4-[N′-(3-methyl-benzylidene)-hydrazino]-6-morpholin-4-yl-pyrimidin-2-yl}-ethyl ester] as the compound, how does the IC50 read?
Answer: The IC50 was less than 25 nM.

Question: CCNC(=O)OCCc1nc(N/N=C/c2cccc(C)c2)cc(N2CCOCC2)n1 [Compound 17, Ethyl-carbamic acid 2-{4-[N′-(3-methyl-benzylidene)-hydrazino]-6-morpholin-4-yl-pyrimidin-2-yl}-ethyl ester] was tested. Which IC50 did it give?
Answer: Its IC50 is less than 25 nM.

Question: Which IC50 does the source give for Cc1cccc(/C=N/Nc2cc(N3CCOCC3)nc(CCSc3nnnn3CCN(C)C)n2)c1 [Compound 18, Dimethyl-{2-[5-(2-{4-[N′-(3-methyl-benzylidene)-hydrazino]-6-morpholin-4-yl-pyrimidin-2-yl}-ethylsulfanyl)-tetrazol-1-yl]-ethyl}-amine] here?
Answer: Its IC50 is less than 25 nM.

Question: How did the IC50 turn out when Cc1ccc(NC(=O)OCCOc2nc(N/N=C/c3cccc(C)c3)cc(N3CCOCC3)n2)cc1 [Compound 19, p-Tolyl-carbamic acid 2-{4-[N′-(3-methyl-benzylidene)-hydrazino]-6-morpholin-4-yl-pyrimidin-2-yloxy}-ethyl ester] was run?
Answer: The IC50 was less than 25 nM.

Question: Which IC50 does the source give for Cc1cccc(/C=N/Nc2cc(N3CCOCC3)nc(CCOC(=O)Nc3ccc(C(C)C)cc3)n2)c1 [Compound 20, (4-Isopropyl-phenyl)-carbamic acid 2-{4-[N′-(3-methyl-benzylidene)-hydrazino]-6-morpholin-4-yl-pyrimidin-2-yl}-ethyl ester] here?
Answer: The IC50 was greater than 50 nM.

Question: How did the IC50 turn out when Cc1cccc(/C=N/Nc2cc(N3CCOCC3)nc(CCOC(=O)Nc3ccc(Cl)cc3)n2)c1 [Compound 21, (4-Chloro-phenyl)-carbamic acid 2-{4-[N′-(3-methyl-benzylidene)-hydrazino]-6-morpholin-4-yl-pyrimidin-2-yl}-ethyl ester] was run?
Answer: Its IC50 is 25 to 50 nM.

Question: With Cc1cccc(/C=N/Nc2cc(N3CCOCC3)nc(CCOC(=O)Nc3ccc(C#N)cc3)n2)c1 [Compound 22, (4-Cyano-phenyl)-carbamic acid 2-{4-[N′-(3-methyl-benzylidene)-hydrazino]-6-morpholin-4-yl-pyrimidin-2-yl}-ethyl ester] as the compound, how does the IC50 read?
Answer: The IC50 was less than 25 nM.

Question: For COC(=O)c1ccc(NC(=O)OCCc2nc(N/N=C/c3cccc(C)c3)cc(N3CCOCC3)n2)cc1 [Compound 23, 4-(2-{4-[N′-(3-Methyl-benzylidene)-hydrazino]-6-morpholin-4-yl-pyrimidin-2-yl}-ethoxycarbonylamino)-benzoic acid methyl ester], which IC50 is on record?
Answer: The IC50 was less than 25 nM.

Question: How did the IC50 turn out when Cc1cccc(/C=N/Nc2cc(N3CCOCC3)nc(CCOC(=O)Nc3ccccc3)n2)c1 [Compound 24, Phenyl-carbamic acid 2-{4-[N′-(3-methyl-benzylidene)-hydrazino]-6-morpholin-4-yl-pyrimidin-2-yl}-ethyl ester] was run?
Answer: The IC50 was less than 25 nM.

Source: US7872005B2, “2-substituted heteroaryl compounds” (Synta Pharmaceuticals Corporation, priority 2004, dated 2011)
